Laboratory results from EP0497921B1, “METHOD FOR INHIBITING ENZYMATIC SYNTHESIS OF NUCLEIC ACIDS USING ISOPSORALENS” (ISAACS, Stephen T., priority 1989, dated 1991).
Marks after values point to notes of the source that are not given here.

Assays:
[1] = Solubility of photoreactive compounds in 1 X TE (optical density of filtrate); format: physicochemical; conditions: 1 x te
Experimental: The solubilities of AMIP, AMDMIP, DMIP, MIP and isopsoralen (IP) were determined experimentally according to the scheme set forth in Figure 5. To perform the solubility measurement, it was first necessary to establish known optical densities for a 1 µg/ml solution of each compound. These were determined by preparing either ethanolic or aqueous stocks of each compound at known concentrations in 1 x TE, then measuring the optical density of each solution. From this information, the absorption of a 1 µg/ml solution was computed. Alternatively, the extinction coefficient may be thus determined and used in the same fashion. In this manner, the following absorption data was collected:
Following this step, undissolved compound was removed by filtration using a 0.2 u nylon-66 syringe filter (Arco LC13; Gelman). The concentration of the remaining soluble compound was then determined by measuring the optical density of the filtrate and computing the solubility from the known optical density of a 1 µg/ml solution of that compound. The solubility of the compounds was thus determined to be as follows: […]

500-mer = experiment: Post-amplification sterilization: isopsoralen plus irradiation, reamplification of carryover; format: biochemical, lambda; conditions: CE-III 15 minutes, 500-mer PCR product, 30 cycles
Experimental: The two PCR targets used in these experiments were a 115-mer (SK-38/SK-39 HIV system) and a 500-mer. The 500-mer target is obtained from a PCR amplification of a lambda plasmid with primers PCR 01/02. This system is provided by Cetus/Perkin Elmer as a control in their commercial kits of PCR reagents (Catalogue No. N801-0055). For both of these systems equivalent copy numbers of each target were prepared in the following manner: An initial 30 cycle PCR reaction was carried out for each system with the appropriate primers and targets. Aliquots (approximately 10^5-10^6 target copies) of each of these reactions were transferred to a second set of PCR reactions. These second sets of PCR amplifications were carried out in the presence of α-^32P-dCTP, again for 30 cycles. Aliquots of these reactions were removed and counted by liquid scintillation counting. With these numbers, the specific activity of the α-32P-dCTP, and the sequence of each of the PCR product oligonucleotides (115-mer and 500-mer), the concentrations of each of the two PCR product oligonucleotides in the second set of PCR reaction tubes was determined. Both the 115-mer and the 500-mer concentrations were then adjusted to exactly 1 x 10^-8 M by the addition of additional Taq buffer. These stocks of equivalent copy number of PCR products were then used for further investigation. Each of the stock solutions then was subdivided into four reaction tubes. The reaction tubes were adjusted to contain the following: Tube 1, 100 µg/ml AMIP; Tube 2, 400 µg/ml AMIP; Tube 3, 100 µg/ml AMDMIP; and Tube 4, 400 µg/ml AMDMIP. Each of these samples were again split into two portions, one part being irradiated for 15 minutes at room temperature with the CE-III device and the other part kept in the dark. Serial dilutions of the irradiated and the unirradiated targets were then carried out on these samples for 30 cycles in the presence of α-32P-CTP. Aliquots of these samples were analyzed on denaturing polyacrylamide gels. The PCR product bands were visualized by autoradiography, cut, and counted in a liquid scintillation counter.

Substance | Solubility in 1 X TE [1] | sterilization sensitivity (molecules of carryover sterilized) (500-mer; 100 µg/ml) | sterilization sensitivity (molecules of carryover sterilized) (500-mer; 400 µg/ml)
4'-Aminomethyl-4,5'-dimethylisopsoralen [AMDMIP] | > 22,700 * µg/ml | ≥ 6 x 10^9 carryover molecules | no signal in the irradiated dilution series
5-Aminomethylisopsoralen [AMIP] | 21,000 µg/ml | more effectively sterilized than the 115-mer PCR product | ≥ 6 x 10^9 molecules of carryover
